For experiment [1], the system named is T47D. As to the kind of experiment: Percentage viability of compound against T47D cell line; NE means No effect. The settings on record: Homo sapiens. The class given is functional, cell-based.
The subject of experiment [2] is MCF7. As to the kind of experiment: Percentage viability of compound against MCF-7 cell line; NE means No effect. The settings on record: Homo sapiens. The format is functional, cell-based.
In experiment [3] the test system is SK-N-MC. As to the kind of experiment: Percentage viability of compound against SK-N-MC cell line; NE means No effect. The format is functional, cell-based. To be noted: Homo sapiens.
Experiment [4] concerns MDA-MB-468. As to the kind of experiment: Percentage viability of compound against MDA-MB-468 cell line; NE means No effect. The class given is functional, cell-based. The settings on record: Homo sapiens.
Experiment [5] concerns SK-N-MC. As to the kind of experiment: Percentage viability of compound against SK-N-MC cell line; 92-94%. The format is functional, Homo sapiens.
Experiment [6] has as its system MCF7. Nature of the experiment: Percentage viability of compound against MCF-7 cell line. The class given is functional, Homo sapiens.
The test system of experiment [7] is MDA-MB-468. Nature of the experiment: Percentage viability of compound against MDA-MB-468 cell line; 92-94%. The format is functional, Homo sapiens.
Experiment [8] relates to T47D. As to the kind of experiment: Percentage viability of compound against T47D cell line; 92-94%. The format is functional, Homo sapiens.

Activity calls are given as the source filed them. The rule behind the calls is not given here.

The source of these data is ChEMBL document CHEMBL1148455, “Synthesis and use of novel ether phospholipid enantiomers to probe the molecular basis of the antitumor Effects of alkyllysophospholipids: correlation of differential activation of c-Jun NH(2)-terminal protein kinase with antiproliferative effects in neuronal tumor cells” (2004).

In the case of `CCCCCCCCCCCCCCCCOC[C@H](/C=C/P(=O)([O-])OCC[N+](C)(C)C)OC`, the Viability entry in the experiment with T47D [1], in the experiment with MCF7 [2], with SK-N-MC [3] and with MDA-MB-468 [4] was “inactive” each time.

`CCCCCCCCCCCCCCCCOC[C@@H](/C=C/P(=O)([O-])OCC[N+](C)(C)C)OC`: the Viability with SK-N-MC [5] is on record as below 94%; in the experiment on MCF7 [6], 61%; in the experiment on MDA-MB-468 [7], below 94%; with T47D [8], below 94%.
